The results in this text go back to patent US20250197408A1, “CRYSTALLINE FORMS AND SALTS OF A PI3K INHIBITOR AND METHODS OF MAKING AND METHODS OF USE THEREOF” (Totus Medicines Inc., priority 2022, published 2025).

One assay addresses T1, PI3K (Homo sapiens, UniProt P42336).
T1 construct: expressed in transfected cells; host or cells: HEK293 (Gibco 293-H, #11631017), transient transfection with FuGENE HD
The experiment in a line: NanoBRET screening in transfected HEK293 cells (binding assay, with washout). The settings on record: compound incubated overnight then washed. The method, then: Human embryonic kidney 293-H (HEK 293, Gibco 293-H, #11631017) cell lines were maintained in Dulbecco's Modified Eagle Medium, high glucose, pyruvate (DMEM, Gibco, #11995065) supplemented with 10% fetal bovine serum (FBS, Gibco, #10082147) and 1× penicillin-streptomycin (100× solution, Gibco, #15140148) at 37° C. and 5% CO2 in a water-saturated incubator. Cell were trypsinized using 0.05% or 0.25% Trypsin-EDTA solution (Trypsin-EDTA, phenol red, Gibco, #25200056 (0.25%) or #25300054). Opti-MEM media supplemented with 10% fetal bovine serum (Opti-MEM I reduced serum media, no phenol red, Gibco, #11058021) was used for culturing cells overnight for NanoBRET readout experiments.
HEK293 cells were cultivated appropriately prior to assay. The medium from cell flask was removed via aspiration, washed 1× with PBS followed by aspiration, trypsinized, and cells were allowed to dissociate from the flask. Trypsin was neutralized using growth medium and cells were pelleted via centrifugation at 200×g for 5 minutes. The medium was aspirated and the cells were resuspended into a single cell suspension using Opti-MEM I supplemented with 10% FBS. The cell density was adjusted to 2×10^5/mL in Opti-MEM I supplemented with 10% FBS in a sterile, conical tube. […]
A 10 μg/mL solution of DNA was prepared in Opti-MEM without serum. […] The plate on plate reader is read every hour for the next 6 hours.
For orientation: BRET reads energy transfer from a luciferase to a nearby fluorophore.

The next assay concerns UM-UC-3 (bladder). The experiment in a line: Cell proliferation assay (CellTiter-Glo, 3 days treatment), UM-UC-3. The format is cell-based. Conditions: Homo sapiens, UMUC3, 72 h, read-out: Absolute IC50. The source says: (§1) The cell lines tested included as follows: UM-UC-3 (bladder), KYSE-410 (HN/Esophagus), SW1463 (rectum), Calu-1 (Lung), NCI-H358 (Lung), SW837 (Rectum), SW756 (Cervix), NCI-H2122 (Lung), NCI-H1373 (Lung), NCI-H1792 (Lung), NCI-H23 (Lung), MIA PaCa-2 (Pancreas), and HC44.
(§2) Cells were recovered and maintained in appropriate culture media. The cells were harvested respectively during the logarithmic growth period. The cells were then resuspended and counted using a Vi cell counter (The cell viability be measured by trypan blue exclusion assay.). The cells were then diluted and 90 μL cell suspensions were used in 96-well plates according to plate map with final cell density. Two duplicate plates were set up. One is for day 0 reading (TO) and the other was cultured in incubator for reading at the end point. The incubated plates were incubated overnight in humidified incubator at 37° C. with 5% CO2.
(§3) At day 0, 10 μL culture medium to each well for TO reading. 10 μL of culture medium was added to each well for TO reading. Then, 50 μl CellTiter-Glo® Reagent was added to each well. […] Luminescence was then recorded using an EnVision Multi Label Reader. […]
(§4) For the endpoint CTG reading, 50 μL of CellTiter-Glo® Reagent were added to each well. […] Luminescence was then recorded using an EnVision Multi Label Reader. IC50's were determined for each cell line.
(In general: ATP-based viability assays read luminescence as a measure of living cells.)

For another assay, the system named is KYSE-410 (HN/Esophagus). As to the kind of experiment: Cell proliferation assay (CellTiter-Glo, 3 days treatment), KYSE-410. The format is cell-based. Conditions: Homo sapiens, 72 h, read-out: Absolute IC50.
Excerpt: as §1, §2, §3, §4

A further assay deals with SW1463 (rectum). As to the kind of experiment: Cell proliferation assay (CellTiter-Glo, 3 days treatment), SW1463. The format is cell-based. Conditions: Homo sapiens, 72 h, read-out: Absolute IC50.
Excerpt: as §1, §2, §3, §4

The next assay has as its system Calu-1 (Lung). As to the kind of experiment: Cell proliferation assay (CellTiter-Glo, 3 days treatment), Calu-1. The format is cell-based. The settings on record: Homo sapiens, 72 h, read-out: Absolute IC50.
Excerpt: as §1, §2, §3, §4

The next assay concerns NCI-H358 (Lung). The experiment in a line: Cell proliferation assay (CellTiter-Glo, 3 days treatment), NCI-H358. The format is cell-based.
Excerpt: as §1, §2
At day 0, 10 μL culture medium to each well for TO reading. Then, 50 μl CellTiter-Glo® Reagent was added to each well. The contents were then mixed for 2 minutes on an orbital shaker to facilitate cell lysis. The plates were then allowed to incubate at room temperature for 10 minutes to stabilize luminescent signal. Luminescence was then recorded using an EnVision Multi Label Reader. The test compound Compound I, and a control cisplatin, where then diluted at various concentrations from a 10 mM stock solution. Compound I was diluted and 10 μL of each 10× compound I from working solutions for a concentration ranging from 10 μM to about 0.005 μM. Cisplatin was diluted to about […] to about 150 nM. The screening plates were then placed back into the incubator for the appropriate treatment time (3 days).
For the endpoint CTG reading, 50 μL of CellTiter-Glo® Reagent were added to each well. The contents were then mixed for 2 minutes on an orbital shaker to facilitate cell lysis. […] Luminescence was then recorded using an EnVision Multi Label Reader. IC50's were determined for each cell line.

Another assay deals with SW837 (Rectum). As to the kind of experiment: Cell proliferation assay (CellTiter-Glo, 3 days treatment), SW837. The settings on record: Homo sapiens, 72 h, read-out: Absolute IC50. The format is cell-based.
Excerpt: as §1, §2, §3, §4

Another assay deals with SW756 (Cervix). As to the kind of experiment: Cell proliferation assay (CellTiter-Glo, 3 days treatment), SW756. The format is cell-based. Conditions: Homo sapiens, 72 h, read-out: Absolute IC50.
Excerpt: as §1, §2, §3, §4

For a further assay, the system named is NCI-H2122 (Lung). The experiment in a line: Cell proliferation assay (CellTiter-Glo, 3 days treatment), NCI-H2122. The class given is cell-based. The settings on record: Homo sapiens, 72 h, read-out: Absolute IC50.
Excerpt: as §1, §2, §3, §4

For a further assay, the system named is NCI-H1373 (Lung). As to the kind of experiment: Cell proliferation assay (CellTiter-Glo, 3 days treatment), NCI-H1373. The class given is cell-based. Conditions: Homo sapiens, 72 h, read-out: Absolute IC50.
Excerpt: as §1, §2, §3, §4

In the next assay the test system is NCI-H1792 (Lung). As to the kind of experiment: Cell proliferation assay (CellTiter-Glo, 3 days treatment), NCI-H1792. The format is cell-based. The settings on record: Homo sapiens, 72 h, read-out: Absolute IC50.
Excerpt: as §1, §2, §3, §4

For the next assay, the system named is NCI-H23 (Lung). As to the kind of experiment: Cell proliferation assay (CellTiter-Glo, 3 days treatment), NCI-H23. The class given is cell-based. The settings on record: Homo sapiens, 72 h, read-out: Absolute IC50.
Excerpt: as §1, §2, §3, §4

In a further assay the test system is MIA PaCa-2 (Pancreas). As to the kind of experiment: Cell proliferation assay (CellTiter-Glo, 3 days treatment), MIA PaCa-2. The format is cell-based. Conditions: Homo sapiens, 72 h, read-out: Absolute IC50.
Excerpt: as §1, §2, §3, §4

In a further assay the test system is HC44. As to the kind of experiment: Cell proliferation assay (CellTiter-Glo, 3 days treatment), HC44. Conditions: Homo sapiens, 72 h, HCC44 (Lung), read-out: Absolute IC50. The format is cell-based.
Excerpt: as §1, §2, §3, §4

Each structure is given as a SMILES string. A value given as a limit tells only on which side of the number the result lay.

T1 sequence (P42336 whole entry): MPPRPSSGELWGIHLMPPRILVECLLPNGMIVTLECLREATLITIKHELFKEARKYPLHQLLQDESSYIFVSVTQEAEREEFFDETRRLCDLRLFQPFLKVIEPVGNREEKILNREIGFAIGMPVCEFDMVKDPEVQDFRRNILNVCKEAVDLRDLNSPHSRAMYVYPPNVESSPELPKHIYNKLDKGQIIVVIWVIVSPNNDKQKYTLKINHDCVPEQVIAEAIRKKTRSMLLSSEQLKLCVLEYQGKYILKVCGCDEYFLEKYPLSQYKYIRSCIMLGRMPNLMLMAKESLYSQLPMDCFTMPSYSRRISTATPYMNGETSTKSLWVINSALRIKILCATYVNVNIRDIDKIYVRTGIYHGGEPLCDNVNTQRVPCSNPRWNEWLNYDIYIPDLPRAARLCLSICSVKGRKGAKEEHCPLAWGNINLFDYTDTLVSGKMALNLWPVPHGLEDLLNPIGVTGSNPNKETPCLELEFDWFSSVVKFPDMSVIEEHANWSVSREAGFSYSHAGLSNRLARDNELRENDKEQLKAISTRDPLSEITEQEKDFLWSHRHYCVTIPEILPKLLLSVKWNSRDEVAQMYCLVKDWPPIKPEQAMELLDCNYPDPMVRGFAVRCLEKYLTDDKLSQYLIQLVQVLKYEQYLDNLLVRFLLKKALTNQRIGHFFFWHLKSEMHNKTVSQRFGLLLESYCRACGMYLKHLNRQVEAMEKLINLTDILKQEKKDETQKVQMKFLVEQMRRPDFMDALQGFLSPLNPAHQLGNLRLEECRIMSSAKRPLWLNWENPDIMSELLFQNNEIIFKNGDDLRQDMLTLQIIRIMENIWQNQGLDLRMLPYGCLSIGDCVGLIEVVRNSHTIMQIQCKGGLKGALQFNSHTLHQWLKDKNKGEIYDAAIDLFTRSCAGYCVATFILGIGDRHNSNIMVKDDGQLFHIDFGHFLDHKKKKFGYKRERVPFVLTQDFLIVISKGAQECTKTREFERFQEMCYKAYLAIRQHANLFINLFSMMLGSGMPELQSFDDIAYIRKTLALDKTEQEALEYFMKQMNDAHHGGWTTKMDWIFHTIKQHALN
T1 sequence (P27986 whole entry partner): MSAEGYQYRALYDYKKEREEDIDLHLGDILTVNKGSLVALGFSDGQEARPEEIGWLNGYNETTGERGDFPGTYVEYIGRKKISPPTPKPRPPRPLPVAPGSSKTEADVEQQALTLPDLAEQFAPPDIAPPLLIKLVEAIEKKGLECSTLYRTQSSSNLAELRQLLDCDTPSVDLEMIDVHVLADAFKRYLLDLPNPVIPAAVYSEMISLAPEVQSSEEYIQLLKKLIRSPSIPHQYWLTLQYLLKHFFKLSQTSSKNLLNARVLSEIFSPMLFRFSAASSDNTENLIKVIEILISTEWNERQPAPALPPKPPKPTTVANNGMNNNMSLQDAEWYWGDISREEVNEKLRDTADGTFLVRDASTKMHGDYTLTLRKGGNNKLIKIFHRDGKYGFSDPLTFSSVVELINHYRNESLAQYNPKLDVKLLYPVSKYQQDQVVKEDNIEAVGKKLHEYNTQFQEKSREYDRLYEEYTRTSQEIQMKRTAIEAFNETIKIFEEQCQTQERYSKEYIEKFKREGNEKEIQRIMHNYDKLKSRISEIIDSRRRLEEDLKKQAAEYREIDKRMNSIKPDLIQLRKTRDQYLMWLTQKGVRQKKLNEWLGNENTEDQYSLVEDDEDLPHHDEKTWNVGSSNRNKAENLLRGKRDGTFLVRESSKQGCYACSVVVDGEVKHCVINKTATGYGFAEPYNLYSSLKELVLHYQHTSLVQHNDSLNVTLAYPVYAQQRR

For `C=CC(=O)NCC(=O)N1CCN(Cc2cc3c(N4CCOCC4)nc(-c4cnc(NC(=O)OC)cc4C(F)(F)F)nn3c2)CC1` [Compound I, methyl (5-(6-((4-(acryloylglycyl)piperazin-1-yl)methyl)-4-morpholinopyrrolo[2,1-f][1,2,4]triazin-2-yl)-4-(trifluoromethyl)pyridin-2-yl) carbamate], on PI3K, the “inhibition of the PI3K target” value was “greater than 80%”. For the same molecule, the 50% inhibitory concentration (IC50) was over 10 µM in the assay on UM-UC-3 (bladder); 2.02 µM with KYSE-410 (HN/Esophagus); 3.86 µM in the assay on SW1463 (rectum); over 10 µM in the assay on Calu-1 (Lung); 1.69 µM in the assay on NCI-H358 (Lung) (Homo sapiens, 72 h, NCI-H358 (Lung), 3 days treatment, read-out: Absolute IC50); over 10 µM in the assay on SW837 (Rectum). For the same molecule, the IC50 with SW756 (Cervix) is 7.29 µM; in the assay on NCI-H2122 (Lung), 3.77 µM; in the assay on NCI-H1373 (Lung) it was over 10 µM; in the assay with NCI-H1792 (Lung) it was over 10 µM; with NCI-H23 (Lung) it was over 10 µM; with MIA PaCa-2 (Pancreas), over 10 µM. In the assay on HC44, the 50% inhibitory concentration (IC50) stood at 7.92 µM. Further, the “inhibitory effect on cell proliferation” value in the assay on NCI-H358 (Lung) (NCI-H358, 3 days treatment, CellTiter-Glo) was “substantial inhibitory effect”.

A word on the IC50: it is the midpoint of a concentration-inhibition curve.
